From US9975852B2, “Quinoline sulfonyl derivatives and uses thereof” (Health Sciences North Research Institute, priority 2013, dated 2018) come the findings set out here.

“Also recorded” adds a separate entry of the source.

In one data set the test system is 184B5. In words: SRB antiproliferative assay, 184B5 non-cancer breast cells. It is filed as cell-based, human. The conditions noted are these: Homo sapiens, 184B5, SRB. In a few lines:
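Cells (5,000-10,000 per well) exposed to seven drug concentrations for 48 h, then TCA-fixed and stained with 0.4% SRB. Growth computed as (Ti−Tz)/(C−Tz)×100 against time-zero and untreated controls. GI50 taken from variable-slope sigmoidal fit.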
In general terms: Sulforhodamine B stains cellular protein and so reports cell mass.

The subject of another data set is MCF7 cells. The experiment in a line: Clonogenic assay using MCF7 cells. The conditions noted are these: for Average colony number: series with non-treated control 34. It is filed as cell-based, human. As for the experimental part:
The clonogenic assay was carried out as described in Santi and Lee (2011).^11
Antiproliferative activity of VR-23 was evaluated on a variety of different cell lines, alone or in combination with Bortezomib, by way of SRBSRB or clonogenic assays.

The target in data set [1] is T1, Chymotrypsin-like proteasome activity in HeLa S3 cell lysates (Homo sapiens, UniProt P28074).
T1 construct: proteasomes were extracted in 0.5% NP40 buffer; endogenous in cells; host or cells: HeLa S3
The experiment in a line: Proteasome activity assay, chymotrypsin-like. In kind it is biochemical. The conditions noted are these: read-out: Inhibition (IC50) Chymotrypsin-like. As for the experimental part:
(§1) Exponentially growing HeLa S3 cells were plated on 96-well plates. After overnight incubation, the cells were treated with different concentrations of drugs for 6 hours or left untreated (control). At the end of 6 hours, proteasomes were extracted in 0.5% NP40 buffer, and equal amounts of samples were incubated with 25 μM of fluorogenic substrates purchased from Boston Biochem (Cambridge Mass.). (LRR-specific for trypsin-like activity, LLE-specific for caspase-like activity and SUVY-specific for chymotrypsin like activity) in black-bottom 96-well plates at 37° C. Fluorescence was monitored every 5 min at the wavelength of 360 nm (excitation) and 480 nm (emission). Chymotrypsin activity was also determined by a kit-based method (similar to described above) purchased from Caymen Biochem (Ann Arbor, Mich.), using a fluorogenic substrate specific for chymotrypsin activity.
(§2) Analysis of proteasome activity in HeLa S3 cell lysates treated with various compounds (FIG. 10). VR-23 inhibits proteasome activity. 20S proteasome activity was inhibited by 1 μM VR-23. MG132 and EGCG, known proteasome inhibitors, were used as positive controls. The PC positive control is cell lysates prepared from Jurkat cells with a high proteasome activity. “Asynchr” denote asynchronous HeLa S3 cells grown in the absence of VR-23.

In the next data set the test system is 20S proteasome. The experiment in a line: 20S proteasome activity in HeLa S3 cell lysates. It is filed as biochemical. The conditions noted are these: 1 μM VR-23. As for the experimental part: as §1, §2
Another data set concerns Jurkat lymphoma cells. The experiment in a line: Flow cytometry, apoptosis of Jurkat lymphoma cells. Conditions: 0.75 μM VR-23, 48 hours. In kind it is cell-based. As for the experimental part:
Asynchronously growing Jurkat lymphoma cells were incubated for 48 hours in the absence (sham control) or presence of Bortezomib alone or in combination with VR-23.
On the technique in general: Flow cytometry measures light scatter and fluorescence of single cells or particles in a stream.

The test system of another data set is MCF10A non-cancer cells. The experiment in a line: Confocal microscopy of centrosomes, MCF10A non-cancer cells. The conditions noted are these: VR-23 20 μM, 3 hours post-DT. It is filed as cell-based, human. The text has this: All immunocytochemistry experiments were visualized by confocal microscopy using a Zeiss 510 Meta laser scanning microscope (Carl Zeiss) equipped with a 63× objective lens, unless otherwise specified herein. Three lasers were utilized for excitation with the following band pass filter settings used for detection: Argon 488 nm (band pass 505-530), HeNe 543 nm (long pass 560) and 633 nm (long pass 650). All images were captured and analyzed using LSM 510 software included with the microscope (LSM Image Examiner™, Carl Zeiss).
The synchronization at the G1/S border (more accurately at the beginning of S phase) was achieved by double thymidine block (DT). Briefly, exponentially growing cells are treated with 2.0 mM thymidine for 18 hours, followed by incubation for 11 hours in drug-free complete medium, by which time most cells are at mid-late G1 phase. The cells are then incubated for another 14 hours in 2.0 mM thymidine to arrest them at the G1/S border. To arrest cells at the G2/M phase, cells were maintained for 18 hours in complete medium containing nocodazole (50 ng/ml). Both these synchronization are reversible.
MCF10A (non-cancer breast) cells synchronized at G1/S by DT were released into complete medium for 3 hours in the absence (control) or presence of VR-23 (20 μM), followed by immunostaining with an antibody specific for cyclin E (FIG. 19A) or Plk1 or Plk4 (FIG. 19B). […]

Turning to `O=[N+]([O-])c1ccc(S(=O)(=O)N2CCN(c3ccnc4cc(Cl)ccc34)CC2)c([N+](=O)[O-])c1` [Compound 1, 7-Chloro-4-(4-(2,4-dinitrophenylsulfonyl)piperazin-1-yl)quinoline], the IC50 with 184B5 was 9 ± 0.1 µM; in the data set on MCF7 cells (Homo sapiens, MCF7, read-out: IC50 MCF7), 1.2 ± 0.5 µM; in data set [1], 0.1 µM. For the same compound, in the data set with 184B5 (48 h, read-out: GI50 184B5), the GI50 amounted to 8.99 ± 0.12 µM. For the same compound, the “Survival (% of the control)” value with MCF7 cells (1.5 μM of VR-23 alone) came to 50.3%; with MCF7 cells (3.1 μM of VR-23 alone), 46.8%. The values for the Average colony number in the data set on MCF7 cells (VR-23 at 0.37 μM) and in the data set with MCF7 cells (VR-23 at 0.75 μM) were 25 and 27, respectively. In the data set with 20S proteasome, the 20S proteasome activity entry was “inhibited; also recorded: almost completely inhibits”. Besides, the “Cell killing by apoptosis” value in the data set on Jurkat lymphoma cells is “neither 6 nM of Bortezomib (FIG. 4, ii) nor 0.75 μM of VR-23 (FIG. 4, iv) induced substantial cell killing by apoptosis”. Also, in the data set on MCF10A non-cancer cells, the “Centrosome amplification in MCF10A” value was “did not cause centrosome amplification”.

For orientation: IC50 means the midpoint of a concentration-inhibition curve. Usually GI50 stands for the concentration at which growth is held to half of that of the control.
